In patent US11174248B2, “Indazolyl-spiro[2.3]hexane-carbonitrile derivatives as LRRK2 inhibitors, pharmaceutical compositions, and uses thereof” (Merck Sharp & Dohme Corp., priority 2017, dated 2021):

Target: GST-tagged truncated human mutant G2019S LRRK2 (Homo sapiens (Human), UniProt Q5S007, G2019S)
Assay: LRRK2 Km ATP LanthaScreen Assay
Assay type: biochemical
Settings: 134 μM ATP (Km ATP); fluorescein-labeled LRRKtide substrate; mean IC50 values
Method: Unless otherwise noted, all LRRK2 IC50 data presented in tables refers to the LRRK2 Km ATP LanthaScreen™ Assay that is described in the Biological Assay section.
Biological Assay: LRRK2 Km ATP LanthaScreen™ Assay
The LRRK2 kinase activity reported herein as IC50 values was determined with LanthaScreen™ technology from Life Technologies Corporation (Carlsbad, Calif.) using GST-tagged truncated human mutant G2019S LRRK2 in the presence of the fluorescein-labeled peptide substrate LRRKtide, also from Life Technologies. The data presented for the Km ATP LanthaScreen™ Assay represents mean IC50 values based on several test results and may have reasonable deviations depending on the specific conditions and reagents used. Assays were performed in the presence of 134 μM ATP (Km ATP). Upon completion, the assay was stopped and phosphorylated substrate detected with a terbium (Tb)-labeled anti-pERM antibody (cat. no. PV4898). The compound dose response was prepared by diluting a 10 mM stock of compound to a maximum concentration of 9.99 μM in 100% dimethylsulfoxide followed by custom fold serial dilution in dimethylsulfoxide nine times. Twenty nanoliters of each dilution was spotted via a Labcyte Echo onto a 384-well black-sided plate (Corning 3575) followed by 15 μl of a 1.25 nM enzyme solution in 1× assay buffer (50 mM Tris pH 8.5, 10 mM MgCl2, 0.01% Brij-35, 1 mM EGTA, 2 mM dithiothreitol, 0.05 mM sodium orthovanadate) Following a 15-minute incubation at room temperature, the kinase reaction was started with the addition of 5 μl of 400 nM fluorescein-labeled LRRKtide peptide substrate and 134 μM ATP solution in 1× assay buffer. The reaction was allowed to progress at ambient temperature for 90 minutes. The reaction was then stopped by the addition of 20 μl of TR-FRET Dilution Buffer (Life Technologies, Carlsbad, Calif.) containing 2 nM Tb-labeled anti-phospho LRRKtide antibody and 10 mM EDTA (Life Technologies, Carlsbad, Calif.). After an incubation of 1 hour at room temperature, the plate was read on an EnVision multimode plate reader (Perkin Elmer, Waltham, Mass.) with an excitation wavelength of 337 nm (Laser) and a reading emission at both 520 and 495 nm. Compound IC50s were interpolated from nonlinear regression best fits of the log of the final compound concentration, plotted as a function of the 520/495-nm emission ratio using Activity base. Abase uses a 4 parameter (4P) logistic fit based on the Levenberg-Marquardt algorithm.

Chain of GST-tagged truncated human mutant G2019S LRRK2 (Q5S007 970-2527 G2019S): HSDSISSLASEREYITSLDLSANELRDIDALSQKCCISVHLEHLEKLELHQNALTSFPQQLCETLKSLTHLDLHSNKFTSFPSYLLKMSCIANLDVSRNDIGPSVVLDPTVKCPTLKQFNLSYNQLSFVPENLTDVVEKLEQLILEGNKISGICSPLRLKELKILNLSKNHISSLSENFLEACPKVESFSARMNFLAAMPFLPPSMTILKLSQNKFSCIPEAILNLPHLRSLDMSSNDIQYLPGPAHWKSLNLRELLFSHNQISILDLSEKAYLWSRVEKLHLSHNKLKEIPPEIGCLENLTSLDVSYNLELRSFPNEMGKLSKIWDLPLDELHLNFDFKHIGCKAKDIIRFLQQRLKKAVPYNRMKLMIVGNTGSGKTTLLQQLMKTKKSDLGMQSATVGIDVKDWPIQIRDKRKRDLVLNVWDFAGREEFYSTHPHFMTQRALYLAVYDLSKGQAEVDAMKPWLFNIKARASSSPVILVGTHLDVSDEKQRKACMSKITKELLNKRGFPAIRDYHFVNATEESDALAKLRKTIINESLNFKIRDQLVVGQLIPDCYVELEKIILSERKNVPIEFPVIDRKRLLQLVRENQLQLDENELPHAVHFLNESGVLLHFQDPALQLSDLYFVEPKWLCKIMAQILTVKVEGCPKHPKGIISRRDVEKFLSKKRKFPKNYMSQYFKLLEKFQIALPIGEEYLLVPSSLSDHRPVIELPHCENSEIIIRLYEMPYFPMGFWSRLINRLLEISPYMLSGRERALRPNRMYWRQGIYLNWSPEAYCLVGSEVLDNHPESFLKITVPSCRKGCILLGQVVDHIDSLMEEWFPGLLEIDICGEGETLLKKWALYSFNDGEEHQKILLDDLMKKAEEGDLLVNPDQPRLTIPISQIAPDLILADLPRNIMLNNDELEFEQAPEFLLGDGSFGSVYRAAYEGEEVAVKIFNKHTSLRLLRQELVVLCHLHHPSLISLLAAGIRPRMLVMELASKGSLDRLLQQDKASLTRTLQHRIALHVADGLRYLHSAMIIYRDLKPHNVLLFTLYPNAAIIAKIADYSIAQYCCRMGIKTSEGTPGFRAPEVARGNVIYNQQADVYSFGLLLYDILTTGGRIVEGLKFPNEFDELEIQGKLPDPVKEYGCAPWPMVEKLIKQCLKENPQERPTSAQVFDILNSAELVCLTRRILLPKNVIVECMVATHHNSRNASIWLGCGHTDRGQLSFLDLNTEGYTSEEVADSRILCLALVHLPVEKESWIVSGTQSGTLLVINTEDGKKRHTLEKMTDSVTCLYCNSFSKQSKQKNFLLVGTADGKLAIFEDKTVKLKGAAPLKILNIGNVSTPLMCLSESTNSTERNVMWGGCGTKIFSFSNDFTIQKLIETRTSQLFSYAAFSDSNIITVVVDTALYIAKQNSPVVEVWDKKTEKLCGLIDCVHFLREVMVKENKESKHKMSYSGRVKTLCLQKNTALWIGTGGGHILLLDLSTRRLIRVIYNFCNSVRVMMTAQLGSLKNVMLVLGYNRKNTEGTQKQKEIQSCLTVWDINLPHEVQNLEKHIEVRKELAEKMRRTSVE

| Structure (SMILES) | IC50 [nM] |
| --- | --- |
| N#CC1(c2ccc3cnn(-c4cc(N5CC[C@@H](CO)C5)ncn4)c3c2)CC2(CC2)C1 [Example 8, (R)-5-(1-(6-(3-(hydroxy-methyl)pyrrolidin-1-yl)pyrimidin-4-yl)-1H-indazol-6-yl)spiro[2.3]hexane-5-carbonitrile] | 2.9 |
| COCC12CC(C1)N(c1cc(-n3ncc4ccc(C5(C#N)CC6(CC6)C5)cc43)ncn1)C2 [Example 9, 5-(1-(6-(4-(methoxymethyl)-2-azabicyclo[2.1.1]hexan-2-yl)pyrimidin-4-yl)-1H-indazol-6-yl)spiro[2.3]hexane-5-carbonitrile] | 9.3 |
| Cc1nc(N2CC[C@@H](C(C)(C)O)C2)cc(-n2ncc3ccc(C4(C#N)CC5(CC5)C4)cc32)n1 [Example 10, (R)-5-(1-(6-(3-(2-hydroxypropan-2-yl)pyrrolidin-1-yl)-2-methylpyrimidin-4-yl)-1H-indazol-6-yl)spiro[2.3]hexane-5-carbonitrile] | 3.8 |
| CC(C)(O)[C@@H]1CCN(c2cc(-n3ncc4ccc(C5(C#N)CC6(CC6)C5)cc43)ncn2)C1 [Example 11, (R)-5-(1-(6-(3-(2-hydroxypropan-2-yl)pyrrolidin-1-yl)pyrimidin-4-yl)-1H-indazol-6-yl)spiro[2.3]hexane-5-carbonitrile] | 0.9 |
| CC(C)(O)C12CC(C1)N(c1cc(-n3ncc4ccc(C5(C#N)CC6(CC6)C5)cc43)ncn1)C2 [Example 12, 5-(1-(6-(4-(2-hydroxypropan-2-yl)-2-azabicyclo[2.1.1]hexan-2-yl)pyrimidin-4-yl)-1H-indazol-6-yl)spiro[2.3]hexane-5-carbonitrile] | 2.6 |
| C[C@H]1CN(c2cc(-n3ncc4ccc(C5(C#N)CC6(CC6)C5)cc43)ncn2)CCN1C1COC1 [Example 13, (S)-5-(1-(6-(3-methyl-4-(oxetan-3-yl)piperazin-1-yl)pyrimidin-4-yl)-1H-indazol-6-yl)spiro[2.3]hexane-5-carbonitrile] | 1 |
| N#CC1(c2ccc3cnn(-c4cc(N5CCO[C@H](CO)C5)ncn4)c3c2)CC2(CC2)C1 [Example 14, (S)-5-(1-(6-(2-(hydroxy-methyl)morpholino)pyrimidin-4-yl)-1H-indazol-6-yl)spiro[2.3]hexane-5-carbonitrile] | 2.9 |
| C[C@@H]1CN(c2cc(-n3ncc4ccc(C5(C#N)CC6(CC6)C5)cc43)ncn2)C[C@H](C)[C@]1(C)O [Example 17, 5-(1-(6-((3S,4s,5R and 3R,4s,5S)-4-hydroxy-3,4,5-trimethylpiperidin-1-yl)pyrimidin-4-yl)-1H-indazol-6-yl)spiro[2.3]hexane-5-carbonitrile] | 8.9 |
| CC(C)(O)C12CC(C1)N(c1cc(-n3ncc4cnc(C5(C#N)CC6(CC6)C5)cc43)ncn1)C2 [Example 18, 5-(1-(6-(4-(2-hydroxypropan-2-yl)-2-azabicyclo[2.1.1]hexan-2-yl)pyrimidin-4-yl)-1H-pyrazolo[4,3-c]pyridin-6-yl)spiro[2.3]hexane-5-carbonitrile] | 19.2 |
| CC(C)(O)[C@@H]1CCN(c2cc(-n3ncc4cnc(C5(C#N)CC6(CC6)C5)cc43)ncn2)C1 [Example 19, (R)-5-(1-(6-(3-(2-hydroxypropan-2-yl)pyrrolidin-1-yl)pyrimidin-4-yl)-1H-pyrazolo[4,3-c]pyridin-6-yl)spiro[2.3]hexane-5-carbonitrile] | 10.7 |
| COCc1nc(N2CC3(C(C)(C)O)CC2C3)cc(-n2ncc3ccc(C4(C#N)CC5(CC5)C4)cc32)n1 [Example 20, 5-(1-(6-(4-(2-hydroxypropan-2-yl)-2-azabicyclo[2.1.1]hexan-2-yl)-2-(methoxy-methyl)pyrimidin-4-yl)-1H-indazol-6-yl)spiro[2.3]hexane-5-carbonitrile] | 16.2 |
| COCc1nc(N2CCN(C3COC3)[C@@H](C)C2)cc(-n2ncc3ccc(C4(C#N)CC5(CC5)C4)cc32)n1 [Example 21, (S)-5-(1-(2-(methoxymethyl)-6-(3-methyl-4-(oxetan-3-yl)piperazin-1-yl)pyrimidin-4-yl)-1H-indazol-6-yl)spiro[2.3]hexane-5-carbonitrile] | 10.9 |
| CC(C)(O)C1CN(c2cc(-n3ncc4ccc(C5(C#N)CC6(CC6)C5)cc43)ncn2)C1 [Example 24, 5-(1-(6-(3-(2-hydroxypropan-2-yl)azetidin-1-yl)pyrimidin-4-yl)-1H-indazol-6-yl)spiro[2.3]hexane-5-carbonitrile] | 2.6 |
| CC1(O)CN(c2cc(-n3ncc4ccc(C5(C#N)CC6(CC6)C5)cc43)ncn2)C1 [Example 25, 5-(1-(6-(3-hydroxy-3-methylazetidin-1-yl)pyrimidin-4-yl)-1H-indazol-6-yl)spiro[2.3]hexane-5-carbonitrile] | 2.9 |
| COC1(C)CN(c2cc(-n3ncc4ccc(C5(C#N)CC6(CC6)C5)cc43)ncn2)C1 [Example 26, 5-(1-(6-(3-methoxy-3-methylazetidin-1-yl)pyrimidin-4-yl)-1H-indazol-6-yl)spiro[2.3]hexane-5-carbonitrile] | 4.3 |
| N#CC1(c2ccc3cnn(-c4cc(N5CC(O)(C6CC6)C5)ncn4)c3c2)CC2(CC2)C1 [Example 27, 5-(1-(6-(3-cyclopropyl-3-hydroxyazetidin-1-yl)pyrimidin-4-yl)-1H-indazol-6-yl)spiro[2.3]hexane-5-carbonitrile] | 7.4 |
| CN1CCOC2(C1)CN(c1cc(-n3ncc4ccc(C5(C#N)CC6(CC6)C5)cc43)ncn1)C2 [Example 28, 5-(1-(6-(8-methyl-5-oxa-2,8-diazaspiro[3.5]nonan-2-yl)pyrimidin-4-yl)-1H-indazol-6-yl)spiro[2.3]hexane-5-carbonitrile] | 1.3 |
| CNc1nc(N2CC3(C(C)(C)O)CC2C3)cc(-n2ncc3ccc(C4(C#N)CC5(CC5)C4)cc32)n1 [Example 29, 5-(1-(6-(4-(2-hydroxypropan-2-yl)-2-azabicyclo[2.1.1]hexan-2-yl)-2-(methylamino)pyrimidin-4-yl)-1H-indazol-6-yl)spiro[2.3]hexane-5-carbonitrile] | 16.7 |
| COc1nc(N2CC3(C(C)(C)O)CC2C3)cc(-n2ncc3ccc(C4(C#N)CC5(CC5)C4)cc32)n1 [Example 30, 5-(1-(6-(4-(2-hydroxypropan-2-yl)-2-azabicyclo[2.1.1]hexan-2-yl)-2-methoxypyrimidin-4-yl)-1H-indazol-6-yl)spiro[2.3]hexane-5-carbonitrile] | 12.3 |
| C[C@H]1CN(c2cc(-n3ncc4ccc(C5(C#N)CC6(CC6)C5)cc43)ccn2)CCN1C1COC1 [Example 31, (S)-5-(1-(2-(3-methyl-4-(oxetan-3-yl)piperazin-1-yl)pyridin-4-yl)-1H-indazol-6-yl)spiro[2.3]hexane-5-carbonitrile] | 11.3 |
| N#CC1(c2ccc3cnn(-c4ccnc(N5CC6(CO)CC5C6)c4)c3c2)CC2(CC2)C1 [Example 32, 5-(1-(2-(4-(hydroxymethyl)-2-azabicyclo[2.1.1]hexan-2-yl)pyridin-4-yl)-1H-indazol-6-yl)spiro[2.3]hexane-5-carbonitrile] | 10 |
| CC1(O)CC2(CN(c3cc(-n4ncc5ccc(C6(C#N)CC7(CC7)C6)cc54)ncn3)C2)C1 (centres unmarked) [Example 33, 5-(1-(6-(6-hydroxy-6-methyl-2-azaspiro[3.3]heptan-2-yl)pyrimidin-4-yl)-1H-indazol-6-yl)spiro[2.3]hexane-5-carbonitrile] | 1 |
| C[C@H]1CN(c2cc(-n3ncc4ccc(C5(C#N)CC6(CC6)C5)cc43)ncn2)CCO1 [Example 42, (S)-5-(1-(6-(2-methyl-morpholino)pyrimidin-4-yl)-1H-indazol-6-yl)spiro[2.3]hexane-5-carbonitrile] | 5.6 |
| CC(C)(O)[C@@H]1CN(c2cc(-n3ncc4ccc(C5(C#N)CC6(CC6)C5)cc43)ncn2)CCO1 [Example 43, (S)-5-(1-(6-(2-(2-hydroxypropan-2-yl)morpholino)pyrimidin-4-yl)-1H-indazol-6-yl)spiro[2.3]hexane-5-carbonitrile] | 0.9 |
| N#CC1(c2ccc3cnn(-c4cc(N5CCC(C6COC6)CC5)ncn4)c3c2)CC2(CC2)C1 [Example 44, 5-(1-(6-(4-(oxetan-3-yl)piperidin-1-yl)pyrimidin-4-yl)-1H-indazol-6-yl)spiro[2.3]hexane-5-carbonitrile] | 5 |
| N#CC1(c2ccc3cnn(-c4cc(N5CCN6CCOC[C@@H]6C5)ncn4)c3c2)CC2(CC2)C1 [Example 45, (S)-5-(1-(6-(hexahydropyrazino[2,1-c][1,4]oxazin-8(1H)-yl)pyrimidin-4-yl)-1H-indazol-6-yl)spiro[2.3]hexane-5-carbonitrile] | 2 |
